This test addresses T1, recombinant human Estrogen Receptor alpha ligand binding domain, residues 307-554 (ER alpha-LBD (GST)) (Homo sapiens, UniProt P03372).
T1 construct: made in house
T1 sequence (P03372 307-554): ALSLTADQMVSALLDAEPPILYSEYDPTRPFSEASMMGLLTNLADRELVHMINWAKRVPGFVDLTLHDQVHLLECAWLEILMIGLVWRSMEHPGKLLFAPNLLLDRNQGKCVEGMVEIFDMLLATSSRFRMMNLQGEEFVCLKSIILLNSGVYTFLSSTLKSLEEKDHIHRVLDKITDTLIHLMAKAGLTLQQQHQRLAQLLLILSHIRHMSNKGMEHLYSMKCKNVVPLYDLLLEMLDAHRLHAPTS
Description: ERα binding assay (LanthaScreen TR-FRET competition). The settings on record: TR-FRET competition with Fluormone ES2 tracer, 4 hours at room temperature; single experiment or average of two or more. For orientation: TR-FRET usually uses a lanthanide donor and a delayed reading to cut background.

Experimental findings from patent US10519152B2, “Compounds and their use in treating cancer” (AstraZeneca AB, priority 2017, dated 2019) are described below.

Consider `Cc1ncsc1-c1ccc(CNC(=O)[C@@H]2C[C@@H](O)CN2C(=O)[C@@H](NC(=O)COCCOc2ccc(COc3cc(F)c([C@@H]4c5[nH]c6ccccc6c5C[C@@H](C)N4CC(C)(C)F)c(F)c3)cc2)C(C)(C)C)cc1` [Example 5, (2S,4R)-1-((S)-2-(2-(2-(4-((3,5-Difluoro-4-((1R,3R)-2-(2-fluoro-2-methylpropyl)-3-methyl-2,3,4,9-tetrahydro-1H-pyrido[3,4-b]indol-1-yl)phenoxy)methyl)phenoxy)ethoxy)acetamido)-3,3-dimethylbutanoyl)-4-hydroxy-N-(4-(4-methylthiazol-5-yl)benzyl)pyrrolidine-2-carboxamide], for which the IC50 was determined as 0.8 nM.
As to `Cc1ncsc1-c1ccc(CNC(=O)[C@@H]2C[C@@H](O)CN2C(=O)[C@@H](NC(=O)COCCCCCCCOc2ccc([C@@H]3c4[nH]c5ccccc5c4C[C@@H](C)N3CC(F)F)nc2)C(C)(C)C)cc1` [Example 6, (2S,4R)-1-((S)-2-(2-((7-((6-((1S,3R)-2-(2,2-Difluoroethyl)-3-methyl-2,3,4,9-tetrahydro-1H-pyrido[3,4-b]indol-1-yl)pyridin-3-yl)oxy)heptyl)oxy)acetamido)-3,3-dimethylbutanoyl)-4-hydroxy-N-(4-(4-methylthiazol-5-yl)benzyl)pyrrolidine-2-carboxamide], the half-inhibitory concentration (IC50) came to 4.2 nM.
Consider `Cc1ncsc1-c1ccc(CNC(=O)[C@@H]2C[C@@H](O)CN2C(=O)[C@@H](NC(=O)COCCCCCCCOc2cc(F)c([C@@H]3c4[nH]c5ccccc5c4C[C@@H](C)N3CC(C)(C)F)c(F)c2)C(C)(C)C)cc1` [Example 7, (2S,4R)-1-((S)-2-(2-((7-(3,5-Difluoro-4-((1R,3R)-2-(2-fluoro-2-methylpropyl)-3-methyl-2,3,4,9-tetrahydro-1H-pyrido[3,4-b]indol-1-yl)phenoxy)heptyl)oxy)acetamido)-3,3-dimethylbutanoyl)-4-hydroxy-N-(4-(4-methylthiazol-5-yl)benzyl)pyrrolidine-2-carboxamide], for which the IC50 came out at 1.2 nM.
`Cc1ncsc1-c1ccc(CNC(=O)[C@@H]2C[C@@H](O)CN2C(=O)[C@@H](NC(=O)COCCCCCCOc2ccc([C@@H]3c4[nH]c5ccccc5c4C[C@@H](C)N3CC(F)F)nc2)C(C)(C)C)cc1` [Example 8, (2S,4R)-1-((S)-2-(2-((6-((6-((1S,3R)-2-(2,2-Difluoroethyl)-3-methyl-2,3,4,9-tetrahydro-1H-pyrido[3,4-b]indol-1-yl)pyridin-3-yl)oxy)hexyl)oxy)acetamido)-3,3-dimethylbutanoyl)-4-hydroxy-N-(4-(4-methylthiazol-5-yl)benzyl)pyrrolidine-2-carboxamide]: the IC50 came out at 6.8 nM.
Regarding `Cc1ncsc1-c1ccc(CNC(=O)[C@@H]2C[C@@H](O)CN2C(=O)[C@@H](NC(=O)COCCCCCOCCOc2cc(F)c([C@@H]3c4[nH]c5ccccc5c4C[C@@H](C)N3CC(C)(C)F)c(F)c2)C(C)(C)C)cc1` [Example 9, (2S,4R)-1-((S)-2-(2-((5-(2-(3,5-Difluoro-4-((1R,3R)-2-(2-fluoro-2-methylpropyl)-3-methyl-2,3,4,9-tetrahydro-1H-pyrido[3,4-b]indol-1-yl)phenoxy)ethoxy)pentyl)oxy)acetamido)-3,3-dimethylbutanoyl)-4-hydroxy-N-(4-(4-methylthiazol-5-yl)benzyl)pyrrolidine-2-carboxamide], the concentration for half-maximal inhibition (IC50) is 0.8 nM.
Consider `Cc1ncsc1-c1ccc(CNC(=O)[C@@H]2C[C@@H](O)CN2C(=O)[C@@H](NC(=O)COCCCCCOCCOc2ccc([C@@H]3c4[nH]c5ccccc5c4C[C@@H](C)N3CC(F)F)nc2)C(C)(C)C)cc1` [Example 10, (2S,4R)-1-((S)-2-(2-((5-(2-((6-((1S,3R)-2-(2,2-Difluoroethyl)-3-methyl-2,3,4,9-tetrahydro-1H-pyrido[3,4-b]indol-1-yl)pyridin-3-yl)oxy)ethoxy)pentyl)oxy)acetamido)-3,3-dimethylbutanoyl)-4-hydroxy-N-(4-(4-methylthiazol-5-yl)benzyl)pyrrolidine-2-carboxamide], for which the IC50 worked out at 39 nM.

As a reminder, the IC50 is the point on the concentration scale where inhibition reaches its midpoint.
